Results as given in patent publication US11643413B2, “9-(2-oxacycloalkyl)-9H-purine-2,6-diamine derivatives and their use for the treatment of skin disorders” (UNIVERZITA PALACKEHO V OLOMOUCI, priority 2017, dated 2023).

Tests used:
[1] = Radical scavenging activity determined by ORAC; settings: relative to trolox; Mean ± SD (n = 3)
Method: The ability of compounds to scavenge free radicals in vitro was determined by Oxygen Radical Absorbance Capacity (ORAC) method. In brief, fluorescein (100 μl, […]) and 25 μl of compound solution were added into each working well in a 96-well microplate preincubated at 37° C. Thereafter, 25 μL of 250 mM AAPH was quickly added, microplate was shaken for 5 s and the fluorescence (Ex. 485 nm, Em. 510 nm) was read every 3 min over 90 min by using microplate reader Infinite 200 (TECAN, Switzerland). The net area under the curve was used to express antioxidant activity relative to trolox which was used as a standard.

Wistar rats = experiment: Acute dermal toxicity; type: in vivo
Method: The test substance 114 was tested for acute dermal toxicity using Wistar rats. Testing was performed according to ČSN EN ISO 10993-11: Biologické hodnoceni zdravotnických prostředků—část 11: Zkoušky na systémovou toxicitu and according to OECD Test Guideline No. 402 Acute Dermal Toxicity Adopted 24 Feb. 1987. The study was performed as limit test: two groups of animals—5 males and 5 females at the dose of 1000 mg/kg of body weight. The pre-test was performed with 1 male and 1 female from each group. After the pilot experiment, the other animals of the group were dosed. The test substance in delivered form was applied on the shaved skin of the test animals for 24 hours. The test animals were observed 14 days after exposure to the test substance, afterwards they were sacrificed, and the necropsy for macroscopic examination of the organs was performed. […] The test substance toxicity was evaluated on the basis of mortality, body weight changes, and clinical signs of toxicity during the observation period and necropsy findings at the end of the study. According to the results of study, the value of Maximum Tolerated Dose (dermal) of the test substance for rats of both sexes is higher than 1000 mg/kg of body weight.

BJ skin fibroblasts = experiment: Intracellular ROS production, DCFH-DA probe; type: cell-based, human; settings: 24 h incubation at 100, 10, 1 and 0.1 μM
Method: ROS production in living cells was determined by using the fluorescent probe DCFH-DA. In brief, compound 114 at 100, 10, 1 and 0.1 μM concentrations was incubated for 24 h with BJ skin fibroblasts. Thereafter, cells were washed with phosphate buffer and DCFH-DA was added. The fluorescence was read every 1 min over 20 min by using microplate reader Infinite M200 (TECAN, Switzerland). ROS production was calculated as the increase in fluorescence over 20 min.

[2] = Calcein AM cytotoxicity, BJ; settings: human, BJ foreskin fibroblasts
Excerpt: (§1) One of the parameters used, as the basis for cytotoxicity assays, is the metabolic activity of viable cells. For example, a microtiter assay, which uses the Calcein AM, is now widely used to quantitate cell proliferation and cytotoxicity. […] Because only metabolically active cells cleave Calcein AM, these assays detect viable cells exclusively. The quantity of reduced Calcein AM corresponds to the number of vital cells in the culture.
(§2) Mouse fibroblasts NIH3T3; mouse immortalized bone marrow macrophages B2.4 and B10A.4, and BJ (human foreskin fibroblasts) were used for routine screening of compounds. The cells were maintained in Nunc/Corning 80 cm^2 plastic tissue culture flasks and cultured in cell culture medium (DMEM with 5 g/l glucose, 2 mM glutamine, 100 U/ml penicillin, 100 μg/ml streptomycin, 10% fetal calf serum and sodium bicarbonate).
(§3) The cell suspensions that were prepared and diluted according to the particular cell type and the expected target cell density (2.500-30.000 cells per well based on cell growth characteristics) were added by pipette (80 μl) into 96/well microtiter plates. Inoculates were allowed a pre-incubation period of 24 hours at 37° C. and 5% CO2 for stabilisation. Four-fold dilutions of the intended test concentration were added at time zero in 20 μl aliquots to the microtiter plate wells. Usually, the compound tested was evaluated at six 4-fold dilutions. […] All compound concentrations were examined in duplicates. Incubations of cells with the tested compounds lasted for 72 hours at 37° C., in 5% CO2 atmosphere and 100% humidity. At the end of the incubation period, the cells were assayed by using Calcein AM. Ten microliters of the stock solution were pipetted into each well and incubated for 1 hour. Fluorescence (FD) was measured with the Labsystem FIA Reader Fluoroscan Ascent (UK).

in vivo = settings: both sexes, Wistar, rat, sc
Method: The aim of the study was to investigate acute toxic effects of the test substance, after a single subcutaneous administration to Wistar rats. The testing was performed according to the methods: ČSN EN ISO 10993-11: Biologické hodnoceni zdravotnických prostředků—část 11: Zkoušky na systémovou toxicitu and OECD Test Guideline No. 420 Acute Oral Toxicity—Fixed Dose Proceduře. Adopted 17 Dec. 2001. The test substance 114 was administered in a single dose as solution in vehicle (olive oil), given subcutaneously to male and female Wistar rats. The dosing was performed sequentially. The pre-test (the sighting study) was performed with 1 female and 1 male for each dose level. The dose level of 30 mg/kg was used as the starting dose. No death of animal was recorded at the starting dose, therefore the following dose level was used (100 mg/kg). […] The presence of subcutaneously administered test substance at the dose level of 30 and 100 mg/kg was visible to second day after application. […] According to the study results the Maximum Tolerated Dose (subcutaneous) of the test substance for male and female rats is >100 mg/kg.

[3] = Calcein AM cytotoxicity, B10A.4 (first column); settings: mouse, B10A.4 immortalized bone marrow macrophages
Excerpt: as §1, §2, §3

NIH3T3 fibroblasts = experiment: Peroxidation of membrane lipids, MDA by TBA method; type: cell-based, mouse; settings: FW = fresh weight
Method: A typical symptom associated with aging is the direct consequence of increased concentrations of reactive oxygen species and lipid peroxidation. […] MDA levels were measured using thiobarbituric acid (TBA method). […] The crude extract was centrifuged at 10,000×g for 5 minutes and 100 μl aliquots of the supernatant were mixed with 100 μl of 0.5% (w/v) TBA containing 0.1% (w/v) trichloroacetic acid. The resulting solution was then incubated for 30 min at 95° C. The samples were rapidly cooled on ice and centrifuged for 5 minutes at 1000×g. […] The newly prepared derivatives of the general formula thus have a protective function against the negative effects of reactive oxygen species that accumulate strongly in the tissues.

[4] = system: Escherichia coli WP2 uvrA strain; experiment: Ames test (Bacterial Reverse Mutation Test), E. coli; type: cell-based; settings: 10-1000 μg per plate; without as well as with metabolic activation
Method: The test substance was (114) assayed for the mutagenicity by the Bacterial Reverse Mutation Test. The performed test was based on EU method B.13/14 Mutagenicity—Reverse mutation test using bacteria, which is analogous to the OECD Test Guideline No. 471. Four indicator Salmonella typhimurium strains TA 98, TA 100, TA 1535, TA 1537 and one indicator Escherichia coli WP2 uvrA strain were used. The test substance was dissolved in dimethylsulfoxide (DMSO) and assayed in doses of 10-1000 μg per plate, which were applied to plates in volume of 0.1 mL. Experiments were performed without as well as with metabolic activation with a supernatant of rat liver and a mixture of cofactors. The working procedure described is in accordance with the documents Method B.13/14, Mutagenicity: Reverse Mutation Test Using Bacteria, Council Regulation (EC) No. 440/2008. Published in O.J. L 142, 2008 and OECD Test Guideline 471, Bacterial Reverse Mutation Test. Adopted Jul. 21, 1997. In the arrangement given above, the test substance was non-mutagenic for all the used tester strains without as well as with metabolic activation.

CN(C)c1nc(NCc2ccco2)c2ncn(C3CCCCO3)c2n1 (stereo not drawn) [Compound 114, 2-(Dimethylamino)-6-furfurylamino-9-(tetrahydro-2H-pyran-2-yl)-9H-purine]
ORAC (compound/trolox) [1]: 0.211 ± 0.018
mortality (Wistar rats; 1000 mg/kg of body weight dermal, 14 days observation): did not cause death of animals
Maximum Tolerated Dose (dermal) (Wistar rats; 24 hours on shaved skin, rats of both sexes): higher than 1000 mg/kg of body weight
concentration at which intracellular ROS production is significantly decreased (BJ skin fibroblasts): ≥ 10 µM
IC50 at 72 h [2]: > 167 µM
MTD (in vivo): > 100 mg/kg
IC50 at 72 h [3]: > 167 µM
MDA (NIH3T3 fibroblasts): 8.8 nmol/g FW
mutagenicity [4]: non-mutagenic
